Data on 16 molecules can be found in US10160748B2 (AbbVie Inc., priority 2015, dated 2018).

The test deals with TNFα trimer (Homo sapiens, UniProt P01375). Nature of the test: TNFα FP Competitive Binding Assay. To be noted: FP binding assay; 20 nM TNFα trimer, 1 nM OregonGreen488 probe; read-out: TNF IC50. The gist of the method: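 Compounds in 12-point 1:3 series, final top 100 μM (2.0% DMSO) or 338 μM (3.4% DMSO), displace 1 nM fluorescent probe from 20 nM TNFα trimer. After 18-24 h incubation plus 1 h rt equilibration, background-subtracted polarization measured and curves fitted with variable slope.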

Bounds are passed on as bounds.

TNFα trimer, sequence (P01375 77-233 limits assumed): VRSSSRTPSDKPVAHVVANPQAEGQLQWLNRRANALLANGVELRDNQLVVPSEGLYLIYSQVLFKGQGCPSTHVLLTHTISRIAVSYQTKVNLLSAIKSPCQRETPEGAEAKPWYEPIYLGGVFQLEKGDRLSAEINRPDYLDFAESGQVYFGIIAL

As for `CC(=O)N1CCN(c2ncc(-c3ccc4c(=O)n(C)n(Cc5cc(CO)ccc5C(F)(F)F)c4c3)cn2)CC1` [Example 115, 6-(2-(4-Acetylpiperazin-1-yl)pyrimidin-5-yl)-1-(5-(hydroxymethyl)-2-(trifluoromethyl)benzyl)-2-methyl-1H-indazol-3(2H)-one], the half-inhibitory concentration (IC50) (in general, the concentration needed to halve the response being measured) is below 1000 nM.
For the molecule `CC(=O)N1CCN(c2ncc(-c3ccc4c(=O)n(C)n(Cc5cn(C(C)=O)cc5C(F)(F)F)c4c3)cn2)C[C@H]1C` [Example 119, (R)-6-(2-(4-Acetyl-3-methylpiperazin-1-yl)pyrimidin-5-yl)-1-((1-acetyl-4-(trifluoromethyl)-1H-pyrrol-3-yl)methyl)-2-methyl-1H-indazol-3(2H)-one], the half-maximal inhibitory concentration (IC50) was below 1000 nM.
Turning to `Cn1c(=O)c2ccc(-c3cnc(N4CC[C@@H](O)C4)nc3)cc2n1Cc1ccccc1OC(F)F` [Example 2.5], the concentration for half-maximal inhibition (IC50) was above 10000 nM.
Next, `Cn1c(=O)c2ccc(-c3cnc(N4CCN5C(=O)OC[C@H]5C4)nc3)cc2n1Cc1cc(CO)ccc1OC(F)F` [Example 16.4]: below 1000 nM.
The value for `Cc1ccc(OC(F)F)c(Cn2c3cc(-c4cnc(N5CCOCC5)nc4)ccc3c(=O)n2C)c1` [Example 1.18] was below 1000 nM.
As for `Cn1c(=O)c2ccc(-c3cnc(N4CCOCC4)nc3)cc2n1Cc1cc(CO)ccc1OC(F)F` [Example 9, 1-(2-(Difluoromethoxy)-5-(hydroxymethyl)benzyl)-2-methyl-6-(2-morpholinopyrimidin-5-yl)-1H-indazol-3(2H)-one], the half-maximal inhibitory concentration (IC50) is below 1000 nM.
For `O=c1[nH]n(Cc2cc(Cl)ccc2Cl)c2cc(-c3cnc(N4CCOCC4)nc3)ccc12` [Example 9.1], the IC50 was above 10000 nM.
In the case of `CC(=O)N1CCC(O)(c2ncc(-c3ccc4c(=O)n(C)n(Cc5ccccc5OC(F)F)c4c3)cn2)CC1` [Example 32, 6-(2-(1-Acetyl-4-hydroxypiperidin-4-yl)pyrimidin-5-yl)-1-(2-(difluoromethoxy)benzyl)-2-methyl-1H-indazol-3(2H)-one], the IC50 lay in the range of 1000 to 10000 nM.
For the molecule `Cc1ccc(Cl)c(Cn2c3cc(-c4cnc(N5CCN6C(=O)NC[C@H]6C5)nc4)ccc3c(=O)n2C)c1` [Example 103, (S)-7-(5-(1(2-Chloro-5-methylbenzyl)-2-methyl-3-oxo-2,3-dihydro-1H-indazol-6-yl)pyrimidin-2-yl)hexahydroimidazo[1,5-a]pyrazin-3(2H)-one], the half-inhibitory concentration (IC50) was below 1000 nM.
On to `CC(C)[C@@H](N)C(=O)OCC(=O)N1CCN(c2ncc(-c3ccc4c(=O)n(C)n(Cc5ccccc5OC(F)F)c4c3)cn2)C[C@H]1C` [Example 14.13], for which the IC50 was below 1000 nM.
On to `Cc1ccc(OC(F)F)c(Cn2c3cc(-c4cnc(N5CCN(S(C)(=O)=O)[C@H](C)C5)nc4)ccc3c(=O)n2C)c1` [Example 24, (R)-1-(2-(Difluoromethoxy)-5-methylbenzyl)-2-methyl-6-(2-(3-methyl-4-(methylsulfonyl)piperazin-1-yl)pyrimidin-5-yl)-1H-indazol-3(2H)-one], for which the half-maximal inhibitory concentration (IC50) is below 1000 nM.
Next, `Cn1c(=O)c2ccc(-c3nc(N4CCOCC4)no3)cc2n1Cc1ccccc1OC(F)F` [Example 13, 1-(2-(Difluoromethoxy)benzyl)-2-methyl-6-(3-morpholino-1,2,4-oxadiazol-5-yl)-1H-indazol-3(2H)-one]: 1000 to 10000 nM; `Cn1c(=O)c2ccc(-c3cnc(N4CCC(C(=O)O)CC4)nc3)cc2n1Cc1ccccc1OC(F)F` [Example 5.5]: 1000 to 10000 nM; `Cn1c(=O)c2ccc(-c3cnc(N4CCNC(=O)C4)nc3)cc2n1Cc1ccccc1OC(F)F` [Example 5.1]: 1000 to 10000 nM.
`C[C@@H]1CN(c2ncc(-c3ccc4c(=O)n(C)n(Cc5ccccc5OC(F)F)c4c3)cn2)CCN1C(=O)[C@@H]1COC(C)(C)O1` [Example 38* Step 1, 1-(2-(Difluoromethoxy)benzyl)-6-(2-((R)-4-((S)-2,2-dimethyl-1,3-dioxolane-4-carbonyl)-3-methylpiperazin-1-yl)pyrimidin-5-yl)-2-methyl-1H-indazol-3(2H)-one]: the IC50 was below 1000 nM.
Take `Cn1c(=O)c2ccc(-c3cnc(N4CCOCC4)nc3)cc2n1CCc1ccccc1F` [Example 1.13]: the IC50 is above 10000 nM.
